Laboratory results as given in US5538962A, “Antibiotic penem compounds” (Zeneca Limited, priority 1992, dated 1996).
In brackets after ≈: the same amount, converted by molar mass.

Tests used:
Experiment in all cases: MIC, in vitro Diagnostic Sensitivity Test, agar-dilution technique
Type in all cases: cell-based
[1] = tested on: Enterobacter cloacae 029; conditions: inoculum 10^4 CFU/spot, read-out: minimum inhibitory concentration (MIC)
Text: (§1) The following results were obtained for representative compounds on a standard in vitro test system using Diagnostic Sensitivity Test. The antibacterial activity is described in terms of the minimum inhibitory concentration (MIC) determined by the agar-dilution technique with an inocukum size of 10^4 CFU/spot.

[2] = tested on: Enterbacter cloacae 108; conditions: inoculum 10^4 CFU/spot, read-out: minimum inhibitory concentration (MIC)
Text: as §1

[3] = tested on: S. aureus 147N; conditions: Staphylococcus aureus, inoculum 10^4 CFU/spot, read-out: minimum inhibitory concentration (MIC)
Text: as §1

[4] = tested on: E. coli TEM; conditions: Escherichia coli, read-out: minimum inhibitory concentration (MIC)
Text: as §1

Row | Compound | MIC [1] | MIC [2] | MIC [3] | MIC [4]
1 | CC(O)C1C(=O)N2C(C(=O)O)=C(SC3CNC(C(=O)Nc4csc(C(=O)O)c4)C3)SC12 [Example 1, (5R,6S,8R,2'S,4'S)-2-(2-(2-carboxy-4-thienylcarbamoyl)pyrrolidin-4-ylthio)-6-(1-hydroxyethyl)pen-2-em-3-carboxlic acid] | 0.015 µg/mL (≈ 0.0309 µM) | 0.5 µg/mL (≈ 1.03 µM) | 0.125 µg/mL (≈ 0.257 µM) | 0.008 µg/mL (≈ 0.0165 µM)
2 | CO/N=C(\C(=O)N[C@@H]1C(=O)N2C(C(=O)O)=C(CSc3nc(=O)c(=O)[nH]n3C)CS[C@H]12)c1csc(N)n1 [ceftriaxone] | 0.06 µg/mL (≈ 0.108 µM) | 32 µg/mL (≈ 57.7 µM) | 2 µg/mL (≈ 3.61 µM) | 0.03 µg/mL (≈ 0.0541 µM)
